According to US12384772B2, “Inhibitors” (VIVORYON THERAPEUTICS N.V., priority 2017, dated 2025):
Like-named read-outs stand apart in the source and are kept apart here.

Target: Glutaminyl cyclase (QC) (Homo sapiens (Human), UniProt Q16769)
Assay: Glutaminyl cyclase assay, determination of IC50 values and calculation of Ki values (H-Gln-AMC substrate, pGAP auxiliary enzyme; pH 8.0 or pH 6.0)
Format: biochemical
Protocol: 10 mM compound stock solutions were prepared in DMSO. For IC50 determination compound stocks were serially diluted (1:3) in DMSO.
All measurements were performed with an EnSpire Perkin Elmer multimode reader using glutaminyl-7-amino-4-methylcoumarin (H-Gin-AMC) as substrate and recombinant pyroglutamyl aminopeptidase (pGAP) as auxiliary enzyme. Reactions were carried out at ambient temperature in black 96-well half area microplates. Each sample consisted of 1 μl test compound solution or solvent (DMSO) and 49 μl QC appropriately diluted in assay buffer (50 mM Tris/HCl, pH 8.0 or 50 mM MES buffer, pH=6.0). After a 10 min preincubation at ambient temperature the enzyme reaction was started by adding 50 μl of Gln-AMC-substrate/pGAP mixture in assay buffer. Final substrate concentrations were 50 and 200 μM for measurement at pH 8.0 or 6.0, respectively. Release of flourogenic AMC were recorded at excitation/emission wavelengths of 380/460 nm. Initial velocity of the enzyme reaction was calculated by linear regression of the first 10 data points using the Enspire Manager software. Final evaluation and calculation of IC50s were performed using GraphPad Prism software.
Ki-values were calculated according to the following formula: Ki=IC50/(1+[S]/Km), where: […]

[1] = pH 6, read-out: hQC Ki [μM] pH6
[2] = pH 8, read-out: hQC Ki [μM] pH8

Chain of Glutaminyl cyclase (QC) (Q16769 29-361): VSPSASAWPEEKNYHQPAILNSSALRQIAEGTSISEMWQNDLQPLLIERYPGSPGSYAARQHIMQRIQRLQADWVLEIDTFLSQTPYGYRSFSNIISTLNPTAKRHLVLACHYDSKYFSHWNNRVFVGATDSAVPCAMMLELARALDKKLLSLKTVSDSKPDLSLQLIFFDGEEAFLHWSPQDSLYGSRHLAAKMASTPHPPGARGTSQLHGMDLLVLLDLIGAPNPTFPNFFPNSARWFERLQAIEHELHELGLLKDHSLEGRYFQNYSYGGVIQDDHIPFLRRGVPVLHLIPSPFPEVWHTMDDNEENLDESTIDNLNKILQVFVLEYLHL

SMILES | Ki [1] | Ki [2]
COc1ccc(-c2cccnc2NCc2ccc3[nH]cnc3c2)cc1 [O5, N-(1H-1,3-benzodiazol-5-ylmethyl)-3-(4-methoxyphenyl)pyridin-2-amine] | 2.74 µM | 2.41 µM
COc1ccc(-c2cnccc2NCc2ccc3[nH]cnc3c2)cc1 [O6, N-(1H-1,3-benzodiazol-5-ylmethyl)-3-(4-methoxyphenyl)pyridin-4-amine] | 15.1 µM | 10.8 µM
COc1ccc(-c2ccncc2NCc2ccc3[nH]cnc3c2)cc1 [O7, N-(1H-1,3-benzodiazol-5-ylmethyl)-4-(4-methoxyphenyl)pyridin-3-amine] | 11.1 µM | 4.24 µM
COc1ccc(-c2cncnc2NCc2ccc3[nH]cnc3c2)cc1 [O8, N-(1H-1,3-benzodiazol-5-ylmethyl)-5-(4-methoxyphenyl)pyrimidin-4-amine] | – | 18.3 µM
COc1ccc(-c2nccnc2NCc2ccc3[nH]cnc3c2)cc1 [O9, N-(1H-1,3-benzodiazol-5-ylmethyl)-3-(4-methoxyphenyl)pyrazin-2-amine] | 1.9 µM | 2.21 µM
COc1ccc(-c2cnccc2NCc2ccc3[nH]cnc3c2)cc1OC [O10, N-(1H-1,3-benzodiazol-5-ylmethyl)-3-(3,4-dimethoxyphenyl)pyridin-4-amine] | 1.63 µM | 0.88 µM
COc1ccc(-c2nccnc2NCc2ccc3[nH]cnc3c2)cc1OC [O12, N-(1H-1,3-benzodiazol-5-ylmethyl)-3-(3,4-dimethoxyphenyl)pyrazin-2-amine] | 0.13 µM | 0.42 µM
Fc1ccc(-c2nccnc2NCc2ccc3[nH]cnc3c2)cc1 [O15, N-(1H-1,3-benzodiazol-5-ylmethyl)-3-(4-fluorophenyl)pyrazin-2-amine] | 10.5 µM | 11.7 µM
c1ccc(Oc2ccc(-c3ccccc3NCc3ccc4[nH]cnc4c3)cc2)cc1 [O16, N-(1H-1,3-benzodiazol-5-ylmethyl)-2-(4-phenoxyphenyl)aniline] | 4.34 µM | 2.11 µM
c1ccc(-c2ccc(OC3CCCCC3)cc2)c(NCc2ccc3[nH]cnc3c2)c1 [O17, N-(1H-1,3-benzodiazol-5-ylmethyl)-2-[4-(cyclohexyloxy)phenyl]aniline] | 2.03 µM | 4.17 µM
CC(C)Oc1ccc(-c2ccccc2NCc2ccc3[nH]cnc3c2)cc1 [O19, N-(1H-1,3-benzodiazol-5-ylmethyl)-2-[4-(propan-2-yloxy)phenyl]aniline] | 1.53 µM | 3.39 µM
COc1ccc(-c2c(C)cccc2NCc2ccc3[nH]cnc3c2)cc1 [O20, N-(1H-1,3-benzodiazol-5-ylmethyl)-2-(4-methoxyphenyl)-3-methylaniline] | 2.38 µM | 1.64 µM
COc1ccc(-c2c(C)cccc2NCc2ccc3[nH]cnc3c2)cc1OC [O21, N-(1H-1,3-benzodiazol-5-ylmethyl)-2-(3,4-dimethoxyphenyl)-3-methylaniline] | 0.43 µM | 0.42 µM
Fc1cccc(NCc2ccc3[nH]cnc3c2)c1-c1ccc(Cl)cc1 [O22, N-(1H-1,3-benzodiazol-5-ylmethyl)-2-(4-chlorophenyl)-3-fluoroaniline] | 4.89 µM | 6.83 µM
COc1ccc(-c2c(F)cccc2NCc2ccc3[nH]cnc3c2)cc1OC [O23, N-(1H-1,3-benzodiazol-5-ylmethyl)-2-(3,4-dimethoxyphenyl)-3-fluoroaniline] | 0.055 µM | 0.1 µM
Fc1ccc(-c2c(F)cccc2NCc2ccc3[nH]cnc3c2)cc1 [O24, N-(1H-1,3-benzodiazol-5-ylmethyl)-3-fluoro-2-(4-fluorophenyl)aniline] | 5.81 µM | 9.41 µM
O=S(=O)(NCc1ccc2[nH]cnc2c1)c1ccc(F)cc1 [P1, N-[(1H-1,3-benzodiazol-5-yl)methyl]-4-fluorobenzene-1-sulfonamide] | 38.3 µM | 24.7 µM
